The text below walks through data of PMC12042053, “Activation and Allostery in a Fungal SAMHD1 Hydrolase: An Evolutionary Blueprint for dNTP Catabolism” (JACS Au, 2025).

In data set [1] the target is T1, Ri SAMHD1 (Rhizophagus irregularis, UniProt A0A015K8Z8).
T1 construct: gene RirG_017260; full length (no SAM domain), N-terminal His6-tag, pET28a(+), expressed in E. coli T7 Express in M9 medium with Fe or Mn; purified as monomer and tetramer; crystal model residues 11-451
The data set is described as follows: nucleotide-induced tetramerization, glutaraldehyde cross-linking and SDS-PAGE. Type of data set: binding. Conditions: monomer, 2 μM, pH 6.5, allosteric.

For data set [2], the target named is T1, Ri SAMHD1. The data set is described as follows: X-ray crystal structure, […] Å. The conditions noted are these: M9-Mn protein, excess Mn, 5 mM GTP; allosteric site at interface of three subunits; Ca ion bound. Type of data set: binding.
Data set [3] concerns the target T1, Ri SAMHD1. In words: EPR of mixed-valent diiron cofactor. Type of data set: binding. The conditions noted are these: M9-Fe protein 0.5 mM, ascorbate-reduced, 2.5 mM nucleotide, O2-free; active site.
Data set [4] concerns the target T1, Ri SAMHD1. The data set is described as follows: steady-state hydrolysis, HPLC […] nm. Type of data set: biochemical. Conditions: M9-Fe tetramer, 0.25 μM, 1 mM Mn, 5 mM dithionite, O2-free, fit with substrate/product inhibition, suggested allosteric, second site.
The target of data set [5] is T2, Ri SAMHD1 (Rhizophagus irregularis, UniProt A0A015K8Z8, R42A).
T2 construct: gene RirG_017260; full length (no SAM domain), N-terminal His6-tag, pET28a(+), expressed in E. coli T7 Express in M9 medium with Fe or Mn; purified as monomer and tetramer; crystal model residues 11-451
In words: nucleotide-induced tetramerization, glutaraldehyde cross-linking and SDS-PAGE. Type of data set: binding. The conditions noted are these: monomer, 2 μM, 1 mM Mn, pH 6.5; allosteric, cooperative.

Data set [6] deals with T3, Ri SAMHD1 (Rhizophagus irregularis, UniProt A0A015K8Z8, D34A).
T3 construct: gene RirG_017260; full length (no SAM domain), N-terminal His6-tag, pET28a(+), expressed in E. coli T7 Express in M9 medium with Fe or Mn; purified as monomer and tetramer; crystal model residues 11-451
The data set is described as above. Conditions: monomer, 2 μM, 1 mM Mn, pH 6.5; allosteric, cooperative. Type of data set: binding.

For data set [7], the target named is SAMHD1 protein from Rhizophagus irregularis, wild type (Rhizophagus irregularis).
Substrate in data set [8]: Nc1nc2c(ncn2[C@H]2C[C@H](O)[C@@H](COP(=O)(O)OP(=O)(O)OP(=O)(O)O)O2)c(=O)[nH]1
In words: purified protein. Type of data set: biochemical, Rhizophagus irregularis. The conditions noted are these: M9-Fe tetramer, 0.25 μM, 1 mM Mn, 5 mM dithionite, O2-free; fit with substrate/product inhibition.

T2 sequence (A0A015K8Z8 entry or part of it R42A): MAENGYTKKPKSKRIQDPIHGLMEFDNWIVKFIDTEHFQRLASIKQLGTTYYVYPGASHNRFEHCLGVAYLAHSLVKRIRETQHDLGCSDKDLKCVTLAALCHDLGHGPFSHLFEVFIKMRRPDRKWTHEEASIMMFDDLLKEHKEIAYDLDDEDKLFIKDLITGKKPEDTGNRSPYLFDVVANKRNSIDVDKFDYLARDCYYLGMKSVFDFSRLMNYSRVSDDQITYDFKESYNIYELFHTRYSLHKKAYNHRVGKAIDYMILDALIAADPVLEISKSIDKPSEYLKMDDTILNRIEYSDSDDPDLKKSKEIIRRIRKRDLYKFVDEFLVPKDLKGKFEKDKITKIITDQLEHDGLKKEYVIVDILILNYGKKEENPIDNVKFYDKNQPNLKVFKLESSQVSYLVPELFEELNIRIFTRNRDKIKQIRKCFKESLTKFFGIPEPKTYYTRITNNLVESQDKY
T3 sequence (A0A015K8Z8 entry or part of it D34A): as the sequence (A0A015K8Z8 entry or part of it R42A) above, with D34A, A42R counted along it

Usually EC50 stands for the midpoint of the concentration-response curve. Low readings indicate higher potency in that assay, high ones lower potency in that assay. In turn, `Nc1nc2c(ncn2[C@@H]2O[C@H](COP(=O)(O)OP(=O)(O)OP(=O)(O)O)[C@@H](O)[C@H]2O)c(=O)[nH]1` [GTP] came in with an EC50 in data set [1] (Mn) of 31 ± 2 µM. Further, the “X-ray crystal structure, 2.27 Å” value in data set [2] is listed as “only one nucleotide (GTP) is positioned within the interface of three subunits”.

Take `Nc1ncnc2c1ncn2[C@H]1C[C@H](O)[C@@H](COP(=O)(O)OP(=O)(O)OP(=O)(O)O)O1` [dATP]: the “EPR of mixed-valent diiron cofactor” value in data set [3] is “Addition of nonguanine-containing dNTPs (dATP, dCTP, and dTTP) increased the signal rhombicity”.

On to `Nc1ccn([C@H]2C[C@H](O)[C@@H](COP(=O)(O)OP(=O)(O)OP(=O)(O)O)O2)c(=O)n1` [dCTP], for which, in data set [3], the “EPR of mixed-valent diiron cofactor” value is “Addition of nonguanine-containing dNTPs (dATP, dCTP, and dTTP) increased the signal rhombicity”.

Take `Nc1nc2c(ncn2[C@H]2C[C@H](O)[C@@H](COP(=O)(O)OP(=O)(O)OP(=O)(O)O)O2)c(=O)[nH]1` [dGTP]: the EC50 in data set [1] (1 mM Mn) stood at 21 ± 3 µM; in data set [5], 605 ± 9 µM; in data set [6], 235 ± 5 µM. Besides, in data set [4], the “apparent KI” value amounted to 301 ± 24 µM.

On to `Cc1cn([C@H]2C[C@H](O)[C@@H](COP(=O)(O)OP(=O)(O)OP(=O)(O)O)O2)c(=O)[nH]c1=O` [dTTP], for which, in data set [3], the “EPR of mixed-valent diiron cofactor” value was “Addition of nonguanine-containing dNTPs (dATP, dCTP, and dTTP) increased the signal rhombicity”.

Regarding “SAMHD1 protein from Rhizophagus irregularis, wild type (enzyme)”, the apparent dNTP hydrolysis rates of the monomeric form on addition of GTP in data set [7] is < 2.4 fold.

B1: Ri SAMHD1 (Rhizophagus irregularis DAOM 197198w) (protein)
chain: MAENGYTKKPKSKRIQDPIHGLMEFDNWIVKFIDTEHFQRLRSIKQLGTTYYVYPGASHNRFEHCLGVAYLAHSLVKRIRETQHDLGCSDKDLKCVTLAALCHDLGHGPFSHLFEVFIKMRRPDRKWTHEEASIMMFDDLLKEHKEIAYDLDDEDKLFIKDLITGKKPEDTGNRSPYLFDVVANKRNSIDVDKFDYLARDCYYLGMKSVFDFSRLMNYSRVSDDQITYDFKESYNIYELFHTRYSLHKKAYNHRVGKAIDYMILDALIAADPVLEISKSIDKPSEYLKMDDTILNRIEYSDSDDPDLKKSKEIIRRIRKRDLYKFVDEFLVPKDLKGKFEKDKITKIITDQLEHDGLKKEYVIVDILILNYGKKEENPIDNVKFYDKNQPNLKVFKLESSQVSYLVPELFEELNIRIFTRNRDKIKQIRKCFKESLTKFFGIPEPKTYYTRITNNLVESQDKY
notes: full length (no SAM domain), N-terminal His6-tag, pET28a(+), expressed in E. coli T7 Express in M9 medium with Fe or Mn; purified as monomer and tetramer; crystal model residues 11-451
The term Km denotes the substrate concentration at which the rate is half of its maximum. Take B1: in data set [8], the Km is 11 ± 3 µM.
